Results: patent US20170190671A1, “BIS(ARYL)CATECHOL DERIVATIVES AS HERBICIDES” (E I DU PONT DE NEMOURS AND COMPANY, priority 2014, published 2017)

How the values were obtained:
[1] = tested on: barnyardgrass (Echinochloa crus-galli); experiment: Test B flooded paddy; type: in vivo; conditions: Echinochloa crus-galli, 336 h; 250 g ai/ha, Flood, 13 to 15 days, scale 0 (no effect) to 100 (complete control); read-out: Plant response rating, Barnyardgrass
Method in brief: (§1)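 Visual injury ratings against untreated controls, taken 13 to 15 days after compound was added to paddy water standing 3 cm above the soil.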

[2] = tested on: ducksalad (Heteranthera limosa); experiment: Test B flooded paddy; type: in vivo; conditions: Heteranthera limosa, 336 h; 250 g ai/ha, Flood, 13 to 15 days, scale 0 (no effect) to 100 (complete control); read-out: Plant response rating, Ducksalad
Method in brief: as §1

rice (Oryza sativa) = experiment: Test B flooded paddy; type: in vivo; conditions: Oryza sativa, 336 h; 250 g ai/ha, Flood, 13 to 15 days, scale 0 (no effect) to 100 (complete control); read-out: Plant response rating, Rice
Method in brief: as §1

[3] = tested on: sedge, umbrella (small-flower umbrella sedge, Cyperus difformis); experiment: Test B flooded paddy; type: in vivo; conditions: Cyperus difformis, 336 h; 250 g ai/ha, Flood, 13 to 15 days, scale 0 (no effect) to 100 (complete control); read-out: Plant response rating, Sedge, Umbrella
Method in brief: as §1

[4] = tested on: Italian ryegrass (Lolium multiflorum); experiment: Test A preemergence; type: in vivo; conditions: Lolium multiflorum, pre-emergence, 240 h, 1000 g ai/ha, 0 to 100 scale, read-out: Plant response rating, Ryegrass, Italian
Method in brief: (§2)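 Pre- and postemergence greenhouse screen. Soil: loam + sand. Spray carrier: solvent mixture, non-phytotoxic, with surfactant. Post timing at 1–2 leaves, height 2–10 cm. Readout: visual injury on a 0–100 scale roughly 10 days after application, untreated plants as reference.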

[5] = tested on: barnyardgrass (Echinochloa crus-galli); experiment: Test A preemergence; type: in vivo; conditions: Echinochloa crus-galli, pre-emergence, 240 h, 1000 g ai/ha, 0 to 100 scale, read-out: Plant response rating, Barnyardgrass
Method in brief: as §2

[6] = tested on: giant foxtail (Setaria faberii); experiment: Test A preemergence; type: in vivo; conditions: Setaria faberi, pre-emergence, 240 h, 1000 g ai/ha, 0 to 100 scale, read-out: Plant response rating, Foxtail, Giant
Method in brief: as §2

kochia (Kochia scoparia) [7] = experiment: Test A preemergence; type: in vivo; conditions: Bassia scoparia, pre-emergence, 240 h, 1000 g ai/ha, 0 to 100 scale, read-out: Plant response rating, Kochia
Method in brief: as §2

[8] = tested on: pigweed (Amaranthus retroflexus); experiment: Test A preemergence; type: in vivo; conditions: Amaranthus retroflexus, pre-emergence, 240 h, 1000 g ai/ha, 0 to 100 scale, read-out: Plant response rating, Pigweed
Method in brief: as §2

[9] = tested on: ragweed (common ragweed, Ambrosia elatior); experiment: Test A preemergence; type: in vivo; conditions: Ambrosia artemisiifolia, pre-emergence, 240 h, 1000 g ai/ha, 0 to 100 scale, read-out: Plant response rating, Ragweed
Method in brief: as §2

[10] = tested on: Italian ryegrass (Lolium multiflorum); experiment: Test A postemergence; type: in vivo; conditions: Lolium multiflorum, post-emergence, 240 h, 1000 g ai/ha, 0 to 100 scale, read-out: Plant response rating, Ryegrass, Italian
Method in brief: as §2

[11] = tested on: barnyardgrass (Echinochloa crus-galli); experiment: Test A postemergence; type: in vivo; conditions: Echinochloa crus-galli, post-emergence, 240 h, 1000 g ai/ha, 0 to 100 scale, 0 no effect, 100 complete control, read-out: Plant response rating, Barnyardgrass
Method in brief: as §2

[12] = tested on: blackgrass (Alopecurus myosuroides); experiment: Test A postemergence; type: in vivo; conditions: Alopecurus myosuroides, post-emergence, 240 h, 1000 g ai/ha, 0 to 100 scale, read-out: Plant response rating, Blackgrass
Method in brief: as §2

corn (Zea mays) = experiment: Test A postemergence; type: in vivo; conditions: Zea mays, post-emergence, 240 h, 1000 g ai/ha, 0 to 100 scale
Method in brief: as §2

[13] = tested on: galium (catchweed bedstraw, Galium aparine); experiment: Test A postemergence; type: in vivo; conditions: Galium, post-emergence, 240 h, 1000 g ai/ha, 0 to 100 scale, read-out: Plant response rating, Galium
Method in brief: as §2

[14] = tested on: giant foxtail (Setaria faberii); experiment: Test A postemergence; type: in vivo; conditions: Setaria faberi, post-emergence, 240 h, 1000 g ai/ha, 0 to 100 scale, read-out: Plant response rating, Foxtail, Giant
Method in brief: as §2

kochia (Kochia scoparia) [15] = experiment: Test A postemergence; type: in vivo; conditions: Bassia scoparia, post-emergence, 240 h, 1000 g ai/ha, 0 to 100 scale, read-out: Plant response rating, Kochia
Method in brief: as §2

[16] = tested on: pigweed (Amaranthus retroflexus); experiment: Test A postemergence; type: in vivo; conditions: Amaranthus retroflexus, post-emergence, 240 h, 1000 g ai/ha, 0 to 100 scale, read-out: Plant response rating, Pigweed
Method in brief: as §2

[17] = tested on: ragweed (common ragweed, Ambrosia elatior); experiment: Test A postemergence; type: in vivo; conditions: Ambrosia artemisiifolia, post-emergence, 240 h, 1000 g ai/ha, 0 to 100 scale, read-out: Plant response rating, Ragweed
Method in brief: as §2

[18] = tested on: wheat (Triticum aestivum); experiment: Test A postemergence; type: in vivo; conditions: Triticum aestivum, post-emergence, 240 h, 1000 g ai/ha, 0 to 100 scale, read-out: Plant response rating, Wheat
Method in brief: as §2

[19] = tested on: pigweed (Amaranthus retroflexus); experiment: Test C postemergence; type: in vivo; conditions: Amaranthus retroflexus, post-emergence, 336 h, Postemergence, scale 0 to 100, read-out: Plant response rating, Pigweed; for pest or weed control at 31 g/ha: 31 g ai/ha; for pest or weed control at 62 g/ha: 62 g ai/ha; for pest or weed control at 125 g/ha: 125 g ai/ha; for pest or weed control at 250 g/ha: 250 g ai/ha
Method in brief: (§3)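 Seeded loam-sand soil (preemergence) or young potted plants of 2-18 cm (postemergence) received test chemical formulated with surfactant in a non-phytotoxic solvent. Pots were kept in the greenhouse for 13-15 days before a visual 0-100 control rating relative to controls.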

[20] = tested on: waterhemp (common waterhemp, Amaranthus rudis); experiment: Test C postemergence; type: in vivo; conditions: Amaranthus tuberculatus, post-emergence, Postemergence, scale 0 to 100, read-out: Plant response rating, Waterhemp; for pest or weed control at 31 g/ha: 31 g ai/ha; for pest or weed control at 62 g/ha: 62 g ai/ha; for pest or weed control at 125 g/ha: 125 g ai/ha; for pest or weed control at 250 g/ha: 250 g ai/ha
Method in brief: as §3

In the case of Clc1cnc(Oc2cccc(Cl)c2Oc2ncc(Br)cn2)nc1 [Compound 17, 5-bromo-2-[2-chloro-6-[(5-chloro-2-pyrimidinyl)oxy]phenoxy]pyrimidine], the pest or weed control at 250 g/ha [1] was 20%, the pest or weed control at 250 g/ha [2] was 100% and the plant injury at 250 g/ha (rice (Oryza sativa)) was 35%. The pest or weed control at 250 g/ha [3] was 100%, the pest or weed control at 1000 g/ha [4] was 100% and the pest or weed control at 1000 g/ha [5] was 100%. It also gave a pest or weed control at 1000 g/ha [6] of 100%, a pest or weed control at 1000 g/ha (kochia (Kochia scoparia) [7]) of 100% and a pest or weed control at 1000 g/ha [8] of 100%. For the same compound, the pest or weed control at 1000 g/ha [9] was 100%, the pest or weed control at 1000 g/ha [10] was 100% and the pest or weed control at 1000 g/ha [11] was 100%. For the same compound, the pest or weed control at 1000 g/ha [12] was 100%, the Corn plant response rating (crop injury, 0 = no effect, 100 = complete kill) at 1000 g/ha (corn (Zea mays)) was 100% and the pest or weed control at 1000 g/ha [13] was 100%. For the same compound, the pest or weed control at 1000 g/ha [14] was 100%, the pest or weed control at 1000 g/ha (kochia (Kochia scoparia) [15]) was 100% and the pest or weed control at 1000 g/ha [16] was 100%. The pest or weed control at 1000 g/ha [17] was 90%, the plant injury at 1000 g/ha [18] was 100% and the pest or weed control at 31 g/ha [19] was 90%. For the same compound, the pest or weed control at 62 g/ha [19] was 95%, the pest or weed control at 125 g/ha [19] was 98% and the pest or weed control at 250 g/ha [19] was 98%. The pest or weed control at 31 g/ha [20] was 90%, the pest or weed control at 62 g/ha [20] was 95% and the pest or weed control at 125 g/ha [20] was 95%. It also gave a pest or weed control at 250 g/ha [20] of 98% and a melting point of 166 to 169 °C.

Work on Fc1cccc(Oc2ncc(Cl)cn2)c1Oc1ncc(Br)cn1 [Compound 27, 5-bromo-2-[2-fluoro-6-[(5-chloro-2-pyrimidinyl)oxy]phenoxy]pyrimidine] yielded a pest or weed control at 250 g/ha [1] of 50%, a pest or weed control at 250 g/ha [2] of 80% and a plant injury at 250 g/ha (rice (Oryza sativa)) of 60%. For the same compound, the pest or weed control at 250 g/ha [3] was 85%, the pest or weed control at 1000 g/ha [4] was 70% and the pest or weed control at 1000 g/ha [5] was 100%. For the same compound, the pest or weed control at 1000 g/ha [6] was 100%, the pest or weed control at 1000 g/ha (kochia (Kochia scoparia) [7]) was 100% and the pest or weed control at 1000 g/ha [8] was 100%. For the same compound, the pest or weed control at 1000 g/ha [9] was 90%, the pest or weed control at 1000 g/ha [10] was 90% and the pest or weed control at 1000 g/ha [11] was 90%. The pest or weed control at 1000 g/ha [12] was 80%, the Corn plant response rating (crop injury, 0 = no effect, 100 = complete kill) at 1000 g/ha (corn (Zea mays)) was 40% and the pest or weed control at 1000 g/ha [13] was 90%. For the same compound, the pest or weed control at 1000 g/ha [14] was 90%, the pest or weed control at 1000 g/ha (kochia (Kochia scoparia) [15]) was 90% and the pest or weed control at 1000 g/ha [16] was 100%. It also gave a pest or weed control at 1000 g/ha [17] of 80%, a plant injury at 1000 g/ha [18] of 50% and a pest or weed control at 31 g/ha [19] of 85%. For the same compound, the pest or weed control at 62 g/ha [19] was 90%, the pest or weed control at 125 g/ha [19] was 95% and the pest or weed control at 250 g/ha [19] was 98%. It also gave a pest or weed control at 31 g/ha [20] of 70%, a pest or weed control at 62 g/ha [20] of 75% and a pest or weed control at 125 g/ha [20] of 90%. For the same compound, the pest or weed control at 250 g/ha [20] was 100% and the melting point was 145 to 148 °C.

For Fc1cnc(Oc2c(F)cccc2Oc2ncc(Cl)cn2)nc1 [Compound 23], the pest or weed control at 250 g/ha [1] was 60%, the pest or weed control at 250 g/ha [2] was 90% and the plant injury at 250 g/ha (rice (Oryza sativa)) was 60%. The pest or weed control at 250 g/ha [3] was 80%, the pest or weed control at 1000 g/ha [4] was 80% and the pest or weed control at 1000 g/ha [5] was 100%. The pest or weed control at 1000 g/ha [6] was 100%, the pest or weed control at 1000 g/ha (kochia (Kochia scoparia) [7]) was 100% and the pest or weed control at 1000 g/ha [8] was 100%. The pest or weed control at 1000 g/ha [9] was 100%, the pest or weed control at 1000 g/ha [10] was 90% and the pest or weed control at 1000 g/ha [11] was 90%. The pest or weed control at 1000 g/ha [12] was 80%, the Corn plant response rating (crop injury, 0 = no effect, 100 = complete kill) at 1000 g/ha (corn (Zea mays)) was 50% and the pest or weed control at 1000 g/ha [13] was 90%. The pest or weed control at 1000 g/ha [14] was 90%, the pest or weed control at 1000 g/ha (kochia (Kochia scoparia) [15]) was 90% and the pest or weed control at 1000 g/ha [16] was 100%. For the same compound, the pest or weed control at 1000 g/ha [17] was 90%, the plant injury at 1000 g/ha [18] was 60% and the pest or weed control at 31 g/ha [19] was 70%. The pest or weed control at 62 g/ha [19] was 80%, the pest or weed control at 125 g/ha [19] was 95% and the pest or weed control at 250 g/ha [19] was 100%. The pest or weed control at 31 g/ha [20] was 65%, the pest or weed control at 62 g/ha [20] was 75% and the pest or weed control at 125 g/ha [20] was 90%. For the same compound, the pest or weed control at 250 g/ha [20] was 98% and the melting point was 141 to 145 °C.
